Assay results taken from patent US20220054644A1, “NOVEL DRUG DELIVERY CONJUGATED MOIETY FOR ORAL ADMINISTRATION OF DRUG UNSUITABLE FOR ORAL ADMINISTRATION AND PREPARATION METHOD THEREOF” (ST PHARM CO., LTD, priority 2015, published 2022).

Experiments:
[1] = system: FXa (Bovine Factor Xa); assay: Measurement of FXa: heparin activity with COATEST HEPARIN FXa assay kit; assay type: biochemical; details: chromogenic substrate S-2222, absorbance at 405 nm
Method: The term “heparin activity” refers to the anticoagulant ability of heparin.
Stock solutions were prepared from 10 IU/ml of standard solution by accurately preparing test substances and then diluted to 0.1 IU/ml with buffer working solution (Tris 0.5 mol/L, pH=8.4, 10 ml, Chromogenix) to prepare standard solutions for each dose as shown in the following table 2 and used for the analysis.
Each 200 μL of pretreated samples was placed in a cuvette and preheated at 37° C. for 3 to 4 minutes. Each 100 μl of FXa (Bovine Factor Xa 71 nkat., Chromogenix) was added thereto and left at 37° C. for about 30 seconds. Then, each 200 μl of S-2222 (Chromogenic substrate (Bz-Ile-Glu-(g-OR)-Gly-Arg-pNA.HCl), Chromogenix) was added thereto and left at 37° C. for 3 minutes. Subsequently, each 300 μl of 20% acetic acid was added thereto, and then the absorbance was measured at 405 nm. At this time, the measurement should be performed within 4 hours.
A linear regression equation was obtained using calibration curve of the standard solutions and converted to obtain the titers of the samples.

[2] = system: deep vein thrombosis (DVT) disease models; assay: Measurement of DVT activities (rat deep vein thrombosis model); assay type: in vivo; details: rats, LMWH (enoxaparin) injected subcutaneously
Method: Low molecular weight heparin (enoxaparin) was administered to one group by subcutaneous injection, and the formulated complex of Example 2 was administered orally to other groups. […] The distal end of the vein along about 3 cm was weakly tied off, and the remaining veins were strongly tied off. 60 minutes after the drug treatment, 1 mL/kg of human pooled plasma was administered intravenously to the ends of the tails at 37° C., and the veins were tied off after 15 seconds to prevent blood flow. The veins were isolated 120 minutes after the drug treatment and stored in a Petri dish with 3.8% sodium citrate. Then, thrombus was isolated, and the amount of […] generated was measured.

[3] = rat, in vivo, iv, 2 mg/kg
Method: The following experiment was performed to determine the pharmacokinetic (PK) behavior of heparin administered orally using the drug delivery conjugated moiety of the present invention.
Prior to drug administration, experimental animals (rats) were fasted for more than 4 hours to empty the stomach. Then, after the dorsal skin was fixed, forced oral administration was performed using a sonde and a syringe for oral administration, and the animals were fed again about 4 hours after the administration. […] Blood samples (450 μL) were collected in a tube containing sodium citrate (50 μL) and centrifuged at 4500×g for 20 minutes to isolate plasma, which was then stored in a deep freezer at −70° C. The concentration of the drug delivery conjugated moiety-heparin complex in the plasma was analyzed using the COATEST HEPARIN FXa assay (Chromogenix).

AUC (Area under the concentration-time curve from 0 to 8 h) [3]: 1.8 ± 0.1 IU · h/ml | CL (Clearance) [3]: 17 ± 0 mL/day/kg | Emax (Maximum effective concentration) [3]: 1.61 ± 0.02 IU/ml | Tmax (Time to reach maximum effective concentration) [3]: 12 ± 0 min | t1/2 (Half-life of drug) [3]: 72 ± 6 min
Substance: enoxaparin [LMWH]
Anti-factor Xa activity [1]: 101 IU/mg | thrombus generated, compared with complex of Example 2 [2]: almost the same results
